pIC50: −log10 of the molar value. Like-named read-outs stand apart in the source and are kept apart here.
Key:
[1] = tested on: MDM2 alternative splicing in Rh18 cells; test: In vitro alternative splicing assay (MDM2, RT-PCR); assay type: cell-based; details: Rh18 cells, 8 h exposure; Table II
Protocol: Briefly, following an 8 h exposure of exponentially growing cells to drug, total RNA was isolated using TRIzol reagent (Invitrogen, Carlsbad, Calif.). Total RNA (1 μg) was used to convert the mRNA to cDNA by using random primers, Oligo(dT)16 and Omniscript Reverse Transcription Kit (Qiagen, Germantown, Md.). PCR analyses were performed using specific oligonucleotides (see Table I) and standard amplification protocols. PCR products were separated by agarose gel electrophoresis, visualized by ethidium bromide staining on an UV transilluminator, and recorded. PCR band sizes were calculated by comparing them to the standard EZ Load 100-bp PCR Molecular Ruler (BioRad Laboratories, Hercules, Calif.).

[2] = Solubility in phosphate buffered saline (HPLC); assay type: physicochemical; details: for solubility: aqueous buffer, read-out: Buffer Soluble
[3] = tested on: JeKo1; test: In vitro cytotoxicity analysis, JeKo1; assay type: cell-based; details: Homo sapiens, JeKo-1
Text: The A549 lung cancer, WiDr colorectal cancer, MCF-7 breast cancer, PC-3 prostate cancer, and OVCAR-3 ovarian cancer cell lines were purchased from the American Type Culture Collection (ATCC, Manassas, Va.) and were maintained in growth media as recommended by the ATCC. The JeKo-1 and JVM-2 mantle cell lymphoma cell lines were purchased from the DSMZ (Brunswick, Germany) and were maintained in growth media as recommended by the vendor. The pediatric rhabdomyosarcoma Rh18 cell line was provided y Dr. P. Houghton (Ohio State University—Nationwide Children's Hospital, Columbus, Ohio) and were maintained in growth media as recommended by Dr. Houghton. All cell culture media were supplemented with L-glutamine and penicillin/streptomycin. All cells were grown under standard culture conditions in CO2 incubators, at 37° C., with 5% CO2, and 100% relative humidity.
Cell viabilities were determined by measuring the cleavage of (sodium 3′-[1-(phenylaminocarbonyl)-3,4-tetrazolium]-bis(4-methoxy-6-nitro)benzene sulfonic acid hydrate) (XTT) to a water-soluble orange formazan by mitochondrial dehydrogenase, following the manufacturer's instructions (Roche Applied Science, Indianapolis, Ind.). Briefly, cell lines were seeded at various cell densities depending on the cell type. The adherent cell lines were allowed to adhere overnight before compound addition, whereas the suspension cell lines were seeded the day of compound addition. Stock concentrations of the compounds were made in DMSO, diluted in culture media and subsequently added to the plates at various final concentrations, then incubated for 72 hours. After the incubation period, the XTT labeling reagent, containing the electron-coupling reagent, was added to each well and incubated for 4 hours. The absorbance of each well was then read at 490 nm with a reference wavelength of 690 nm using a VersaMax™ microplate reader (Sunnyvale, Calif.). Data are expressed as the percentage of growth compared to vehicle-treated cells, as calculated from absorbance and corrected for background absorbance.
Alternatively, cell lines were seeded in 100 μL cell culture medium in 96-well plates. Depending on the cell proliferation rate, cells were seeded at 4,000 to 6,000 cells/well. Suspension cell cultures were initiated with 20,000 cells/well. The cells were incubated overnight at 37° C., and then the drug treatments were started by adding 50 μL medium containing the corresponding drug dilution and DMSO. The final concentration of DMSO onto the cells was 0.5% v/v in all wells. The cells viability was determined using the CellTiter-Glo Luminescent Cell Viability Assay (Promega, Madison, Wis.). The CellTiter-Glo reagent was prepared according to the manufacturer's instructions, and then 50 μL reagent was added to each well for 1 h at rt. The luminescence was measured on an Envision Multilabel Plate Reader (PerkinElmer, Waltham, Mass.). The IC50 values were calculated from the dose-response curve analysis with GraphPad Prism 6.01 (GraphPad Software, La Jolla, Calif.) using the nonlinear regression model 4 Parameter Logistic. Nine concentrations were generated by 1:2 serial dilutions for each IC50 assay. Each drug concentration was evaluated in triplicate or quadruplicate.

[4] = Mouse plasma stability (HPLC); assay type: in vitro ADME; details: mouse plasma at 37° C.
[5] = tested on: cytotoxicity or splicing modulation; test: Rapid onset of cytotoxicity or splicing modulation; assay type: cell-based; details: maximum cytotoxicity or splicing modulation within 5 hours of drug treatment
Protocol: The cell were seeded in of 100 μl of medium into 96-well plates (HeLa at 4×10^4 cell/well; SK_MEL_2 at 6×10^4 cell/well), they were allowed to attach overnight, and then treatments started by adding 50 μl of medium containing Sudemycin D6 to produce a final concentration of 1 μM and DMSO to 0.5% v/v final into the experimental well. Continuous drug treatments were run in the same plate, using concentrations of 0, 62.5, 125, 250, 500 & 1000 nM final. DMSO was added into all wells, including non-treated wells to 0.5% v/v final concentration. For wells where the drug was withdrawn, the medium was carefully aspirated after 1, 2, 3 and 4 hours after the addition of the drug, the cells were washed once with PBS and then 150 μl of fresh cell culture medium containing 0.5% v/v DMSO was added into all washed out wells. After 72 hours of the addition of drug, the cell viability was determined using CellTiter-Glo luminescent cell viability assay (Promega, Madison, Wis.), and Sudemycin D6 cytotoxicity was calculated as the percentage of cell proliferation inhibition against the control treatment DMSO.

[6] = tested on: SK-MEL-2; test: Drug combination assay, SK-MEL-2; assay type: cell-based; details: for CI in SK-MEL-2 with compound 19: Combination Index at ED50, CalcuSyn 2.1, listed drug + compound 19
Protocol: (§1) Preliminary cytotoxic screenings for each drug used in drug combination assays were performed to determine their cytotoxic dose range. […] Eight concentrations were established by 1:3 serial dilutions of the single drugs and their combinations with the splicing modulators. All drug concentrations were evaluated in triplicate in 96-well cell culture plates. Assays of individual drugs and drug combinations were run on the same tissue culture plate. Cell viability was determined using the CellTiter-Glo reagent.
(§2) Luminescence data obtained from the cell viability determinations were formatted per the requirements of the analytical software (viability data range: >0 and <1). The formatted data were analyzed with the software CalcuSyn 2.1 (Biosoft, Cambridge, UK), which provides quantitative CI values for the drug interaction analyses (see ranges in Supplementary Table S2).

[7] = tested on: cell lines investigated; test: Drug combination assays, cell line not stated; assay type: cell-based
Protocol: as §1, §2

[8] = tested on: Sk-N-AS; test: Drug combination assay, Sk-N-AS neuroblastoma; assay type: cell-based; details: neuroblastoma cell line SK-NA-S; CalcuSyn 2.1
Protocol: as §1, §2

[9] = listed drug combined with compound 19, Ineffective = drug IC50 much higher than 1 μM

CC(=O)O[C@@H](C)/C=C\C(=O)N[C@H]1CC[C@@H](C/C=C(C)/C=C/[C@@H]2C[C@]3(CO3)CC(C)(C)O2)CC1
MDM2 Splicing Effects [1]: Yes
Buffer Soluble [2]: No
pIC50 ([3]; Table II): 7.00
Plasma Stability [4]: No
Rapid Onset [5]: Yes (“Yes” indicates maximum cytotoxicity or splicing modulation is seen within 5 hours of drug treatment.)

CC(/C=C/[C@@H]1C[C@]2(CO2)CC(C)(C)O1)=C\C[C@H]1OC[C@@H](NC(=O)/C=C\[C@H](C)OC(=O)C(C)C)CO1
MDM2 Splicing Effects [1]: Yes
solubility [2]: > 10 µM
pIC50 ([3]; Table II): 6.66
Plasma Stability [4]: No
Rapid Onset [5]: No

CC(/C=C/C1C[C@]2(CO2)CC(C)(C)O1)=C\C[C@H]1OC[C@@H](NC(=O)/C=C\[C@H](C)OC(=O)N(C)C)CO1 (stereo partly drawn)
MDM2 Splicing Effects [1]: Yes
solubility [2]: > 10 µM
pIC50 ([3]; Table II): 6.52
Plasma Stability [4]: Yes (“Yes” indicates mouse plasma stability is >5 hours in mouse plasma at 37 °C as determined by HPLC.)
Rapid Onset [5]: No

CC(/C=C/[C@@H]1C[C@]2(CO2)CC(C)(C)O1)=C\C[C@H]1CC[C@@H](NC(=O)/C=C\[C@H](C)OC(=O)N(C)CCN(C)C)CC1
solubility [2]: > 10 µM
pIC50 ([3]; Table II): 6.77

CC(/C=C/[C@@H]1C[C@]2(CO2)CC(C)(C)O1)=C\C[C@H]1CC[C@@H](NC(=O)/C=C\[C@H](C)OC(N)=O)CC1
pIC50 ([3]; Table II): 7.00

CC(/C=C/[C@@H]1C[C@]2(CO2)CC(C)(C)O1)=C\C[C@H]1OC[C@@H](NC(=O)/C=C\[C@H](C)OC(=O)NC(C)(C)C)CO1
pIC50 ([3]; Table III): < 6.00

CCCN(C)C(=O)O[C@@H](C)/C=C\C(=O)N[C@H]1CO[C@@H](C/C=C(C)/C=C/[C@@H]2C[C@]3(CO3)CC(C)(C)O2)OC1
pIC50 ([3]; Table III): 6.21

CCCCN(C)C(=O)O[C@@H](C)/C=C\C(=O)N[C@H]1CO[C@@H](C/C=C(C)/C=C/[C@@H]2C[C@]3(CO3)CC(C)(C)O2)OC1
pIC50 ([3]; Table III): 6.16

CC(/C=C/[C@@H]1C[C@]2(CO2)CC(C)(C)O1)=C\C[C@H]1OC[C@@H](NC(=O)/C=C\[C@H](C)OC(=O)N(C)C(C)C)CO1
pIC50 ([3]; Table III): 6.15

CC(/C=C/[C@@H]1C[C@]2(CO2)CC(C)(C)O1)=C\C[C@H]1OC[C@@H](NC(=O)/C=C\[C@H](C)OC(=O)N(C)C(C)(C)C)CO1
pIC50 ([3]; Table III): 6.11

CC(/C=C/[C@@H]1C[C@]2(CO2)CC(C)(C)O1)=C\C[C@H]1OC[C@@H](NC(=O)/C=C\[C@H](C)OC(=O)N(C)C)CO1
pIC50 ([3]; Table III): 6.52

O=c1[nH]cc(F)c(=O)[nH]1 [5-Fluorouracil]
Interaction Type [6, 9]: Ineffective^a

Cn1c(=O)n(-c2ccc(C(C)(C)C#N)cc2)c2c3cc(-c4cnc5ccccc5c4)ccc3ncc21 [BEZ 235]
drug interaction with compound 19 (panel of 23 drugs) [7]: strongest synergy
drug interaction with compound 19 [8]: strong synergism
drug interaction with compound 20 [8]: strong synergism
CI in SK-MEL-2 with compound 19 [6]: 0.21
Interaction Type [6, 9]: Strong

C/C(=C\C(=O)Nc1ccccc1C(=O)O)c1ccc2ccccc2c1 [BIBR 1532]
Interaction Type [6]: Ineffective

CC(C)C[C@H](NC(=O)[C@H](Cc1ccccc1)NC(=O)c1cnccn1)B(O)O [Bortezomib]
Interaction Type [6, 9]: Antagonism (1.45-3.3)

CC[C@@]1(O)C(=O)OCc2c1cc1n(c2=O)Cc2cc3ccccc3nc2-1 [Camptothecin]
CI in SK-MEL-2 with compound 19 [6]: 0.74
Interaction Type [6, 9]: Antagonism (1.45-3.3)

COc1cccc2c1C(=O)c1c(O)c3c(c(O)c1C2=O)C[C@@](O)(C(=O)CO)C[C@@H]3O[C@H]1C[C@H](N)[C@H](O)[C@H](C)O1 [Doxorubicin]
Interaction Type [6, 9]: Ineffective

COc1cc([C@@H]2c3cc4c(cc3[C@@H](O[C@@H]3O[C@@H]5CO[C@@H](C)O[C@H]5[C@H](O)[C@H]3O)[C@H]3COC(=O)[C@H]23)OCO4)cc(OC)c1O [Etoposide]
Interaction Type [6]: Ineffective

COC(=O)C[C@](O)(CCC(C)(C)O)C(=O)O[C@@H]1C(OC)=C[C@]23CCCN2CCc2cc4c(cc2[C@H]13)OCO4 [Harringtonine]
Interaction Type [6, 9]: Antagonism (1.45-3.3)

NC(=O)NO [Hydroxyurea]
Interaction Type [6]: Ineffective

Cc1ccc(NC(=O)c2ccc(CN3CCN(C)CC3)cc2)cc1Nc1nccc(-c2cccnc2)n1 [Imatinib]
Interaction Type [6, 9]: Antagonism (1.45-3.3)

O=C(O)c1nn(Cc2ccc(Cl)cc2Cl)c2ccccc12 [Lonidamine]
Interaction Type [6, 9]: Ineffective

CO[C@@]12[C@H](COC(N)=O)C3=C(C(=O)C(C)=C(N)C3=O)N1C[C@@H]1N[C@@H]12 [Mitomycin C]
Interaction Type [6]: Ineffective

CCCCCCCCCCCCNC(=O)NC1CCCCC1 [NCND]
cytotoxic effect of drug alone ([7]; single drug in combination assays): Neither AUDA nor NCND alone produced a cytotoxic effect
Interaction Type [6, 9]: Slightly

COc1ccc(C2=N[C@@H](c3ccc(Cl)cc3)[C@@H](c3ccc(Cl)cc3)N2C(=O)N2CCNC(=O)C2)c(OC(C)C)c1 [Nutlin-3]
Interaction Type [6, 9]: Ineffective

Cc1ncc(C[n+]2csc(CCO)c2C)c(=O)[nH]1 [Oxythiamine]
Interaction Type [6, 9]: Ineffective

Cc1[nH]c2ccccc2c1CCNCc1ccc(/C=C/C(=O)NO)cc1 [Panobinostat]
CI in SK-MEL-2 with compound 19 [6]: 0.76

COc1ccc2c(c1)/C(=C/c1cnc[nH]1)C(=O)N2 [SU 9516]
CI in SK-MEL-2 with compound 19 [6]: 0.83
Interaction Type [6, 9]: Antagonism (1.45-3.3)

COc1cc(C2Oc3cc([C@H]4Oc5cc(O)cc(O)c5C(=O)[C@@H]4O)ccc3OC2CO)ccc1O (stereo partly drawn) [Silibinin]
CI in SK-MEL-2 with compound 19 [6]: 0.89
Interaction Type [6, 9]: Moderate

CNC(=O)c1cc(Oc2ccc(NC(=O)Nc3ccc(Cl)c(C(F)(F)F)c3)cc2)ccn1 [Sorafenib]
drug interaction with compound 19 (panel of 23 drugs) [7]: second strongest synergistic agent
drug interaction with compound 19 [8]: predominantly synergistic
CI in SK-MEL-2 with compound 19 [6]: 0.43

CC(=O)O[C@H]1C(=O)[C@@]2(C)[C@H]([C@H](OC(=O)c3ccccc3)[C@]3(O)C[C@H](OC(=O)[C@H](O)[C@@H](NC(=O)c4ccccc4)c4ccccc4)C(C)=C1C3(C)C)[C@]1(OC(C)=O)CO[C@@H]1C[C@@H]2O [Taxol]
Interaction Type [6, 9]: Antagonism (1.45-3.3)
